According to paper PMC9199881 (Clinical and Translational Science, 2022):

Assays:
healthy subjects = assay: Safety assessment; format: in vivo, human
[1] = tested on: human ether-a-go-go-related gene (hERG) current; conditions: 10 μM; hERG-transfected HEK293 cells; ref unpublished preclinical safety studies; cited from earlier work
[2] = tested on: cytochrome P450 3A4 (CYP3A4); conditions: enzymatic studies; cited from earlier work
other CYP enzymes = conditions: enzymatic studies; cited from earlier work
[3] = cited from earlier work
[4] = tested on: collagen-induced arthritis in rats; conditions: cited from earlier work
[5] = tested on: rat antibody-mediated Arthus model; conditions: cited from earlier work
[6] = tested on: mouse immune thrombocytopenia model; conditions: cited from earlier work
[7] = tested on: spontaneous canine pemphigus foliaceus; conditions: cited from earlier work
patients with PV and ITP = conditions: rilzabrutinib 400 mg b.i.d.; cited from earlier work
[8] = Plasma pharmacokinetics, Part B; conditions: for AUC(0-inf): AUC0–∞
[9] = Part B, 400 mg rilzabrutinib plus ritonavir
[10] = Part B, rilzabrutinib 400 mg + ritonavir 100 mg, first column of the group
[11] = Part B, rilzabrutinib 400 mg + ritonavir 100 mg, second column of the group
[12] = human, in vivo, 400 mg, Mean (SD), 400 mg single dose alone
[13] = human, in vivo, 400 mg, Median (range), 400 mg single dose alone

## CC(C)(/C=C(\C#N)C(=O)N1CCC[C@@H](n2nc(-c3ccc(Oc4ccccc4)cc3F)c3c(N)ncnc32)C1)N1CCN(C2COC2)CC1 [Rilzabrutinib, rilzabrutinib]
Healthy subjects; Part B
  serious TEAEs or deaths: no serious TEAEs or deaths
Healthy subjects; Part B, 400 mg alone
  Treatment-related TEAE: Abdominal pain, n (%): 3 (9.4) n (%)
  Treatment-related TEAE: Diarrhea, n (%): 9 (28.1) n (%)
  Treatment-related TEAE: Dizziness, n (%): 0 n (%)
  Treatment-related TEAE: Dysgeusia, n (%): 1 (3.1) n (%)
  Treatment-related TEAE: Frequent bowel movements, n (%): 0 n (%)
  Treatment-related TEAE: Gastrointestinal disorders, n (%): 13 (40.6) n (%)
  Treatment-related TEAE: Headache, n (%): 1 (3.1) n (%)
  Treatment-related TEAE: Herpex simplex, n (%): 0 n (%)
  Treatment-related TEAE: Infections and infestations, n (%): 0 n (%)
  Treatment-related TEAE: Lethargy, n (%): 0 n (%)
  Treatment-related TEAE: Nervous system disorders, n (%): 2 (6.3) n (%)
  Treatment-related TEAE: Somnolence, n (%): 0 n (%)
  Treatment-related TEAE: Subjects with ≥1 TEAE, n (%): 14 (43.8) n (%)
  Treatment-related TEAE: Vomiting, n (%): 0 n (%)
  incidence of treatment-related TEAEs: 43.8%
  participants with diarrhea: 28.1%
Healthy subjects; [9]
  incidence of treatment-related TEAEs: 44.1%
  participants with diarrhea: 35.3%
Healthy subjects; Part B, nausea with 400 mg and diarrhea with 400 mg plus 100 mg ritonavir, in two participants
  moderate (grade 2) rilzabrutinib related TEAEs: two moderate (grade 2) rilzabrutinib related TEAEs
Healthy subjects; [10]
  Treatment-related TEAE: Abdominal pain, n (%): 0 n (%)
  Treatment-related TEAE: Diarrhea, n (%): 12 (35.3) n (%)
  Treatment-related TEAE: Dizziness, n (%): 0 n (%)
  Treatment-related TEAE: Dysgeusia, n (%): 2 (5.9) n (%)
  Treatment-related TEAE: Frequent bowel movements, n (%): 1 (2.9) n (%)
  Treatment-related TEAE: Gastrointestinal disorders, n (%): 14 (41.2) n (%)
  Treatment-related TEAE: Headache, n (%): 0 n (%)
  Treatment-related TEAE: Herpex simplex, n (%): 1 (2.9) n (%)
  Treatment-related TEAE: Infections and infestations, n (%): 1 (2.9) n (%)
  Treatment-related TEAE: Lethargy, n (%): 0 n (%)
  Treatment-related TEAE: Nervous system disorders, n (%): 3 (8.8) n (%)
  Treatment-related TEAE: Somnolence, n (%): 2 (5.9) n (%)
  Treatment-related TEAE: Vomiting, n (%): 0 n (%)
Healthy subjects; [11]
  Treatment-related TEAE: Abdominal pain, n (%) [second column of the group]: 0 n (%)
  Treatment-related TEAE: Diarrhea, n (%) [second column of the group]: 12 n (%)
  Treatment-related TEAE: Dizziness, n (%) [second column of the group]: 0 n (%)
  Treatment-related TEAE: Dysgeusia, n (%) [second column of the group]: 2 n (%)
  Treatment-related TEAE: Headache, n (%) [second column of the group]: 0 n (%)
  Treatment-related TEAE: Herpex simplex, n (%) [second column of the group]: 1 n (%)
  Treatment-related TEAE: Lethargy, n (%) [second column of the group]: 0 n (%)
  Treatment-related TEAE: Nausea, n (%) [second column of the group]: 4 n (%)
  Treatment-related TEAE: Somnolence, n (%) [second column of the group]: 2 n (%)
  Treatment-related TEAE: Vomiting, n (%) [second column of the group]: 0 n (%)
Healthy subjects; at the studied doses
  changes in clinical chemistry: No clinically meaningful changes
  safety profile: acceptable safety profile
[1]
  signal on hERG current: no signal
[2]
  interaction with CYP3A4: substrate for and weak inhibitor
Other CYP enzymes
  interaction with other CYP enzymes: no significant interaction
[3]; 400 mg b.i.d.
  accumulation after chronic multiple dosing: minimal accumulation
[3]; healthy volunteers
  delay of absorption by a moderate fat meal: ~ 1 h
[3]; single dose 50–1200 mg, healthy volunteers
  median time to maximum plasma concentration [Tmax]: 0.5 to 2.5 h
[3]; single dose, healthy volunteers
  mean half-life (t 1/2): 1.4 to 3.9 h
[4]
  effect on disease: dose‐dependent reduction and complete reversal of disease
[5]
  anti-inflammatory effects: rapid and significant anti‐inflammatory effects
[6]
  anti-inflammatory effects: rapid and significant anti‐inflammatory effects
[7]
  anti-inflammatory effects: rapid and significant anti‐inflammatory effects
Patients with PV and ITP
  prolonged QTcF interval among safety concerns: did not report prolonged QTcF interval
[8]; 400 mg single dose alone
  Tmax, Median (range): 2.1 (0.6–4.1) h
[8]; human, in vivo, 400 mg, AUC0–last, Mean (SD), 400 mg single dose alone
  AUC(0-t): 455 ng·h/mL
[8]; [12]
  AUC(0-inf): 454 ng·h/mL
  Cmax: 144 ng/mL
  Tmax: 2.1 h
[8]; [13]
  AUC(0-inf): 312 ng·h/mL
  Cmax: 102 ng/mL
  Tmax: ~2.1 h
[8]; human, in vivo, 400 mg, t 1/2, Mean (SD), 400 mg single dose alone
  half-life: 3.9 h
[8]; human, in vivo, 400 mg, t 1/2, Median (range), 400 mg single dose alone
  half-life: 3.1 h
[8]; rilzabrutinib 400 mg + ritonavir 100 mg BID vs 400 mg alone
  increase in rilzabrutinib Cmax with ritonavir: 5 fold
